Assay type in all cases: ADME, organism-based
Series [1] is described as follows: Drug excretion in human urine assessed as retention time treated with [14C]bendamustine at 120 mg/m'2, iv after 2 hrs by 180 mins LC-LSC-MSn method.
Series [2] in a line: Drug excretion in human urine assessed as retention time treated with [14C]bendamustine at 120 mg/m'2, iv after 2 hrs by 60 mins LC-LSC-MSn method.
A short description of series [3]: Drug excretion in human urine treated with [14C]bendamustine at 120 mg/m'2, iv after 2 hrs by 60-min LC-LSC-MSn method. The settings on record: in vivo.
Series [4] is described as follows: Drug level in human urine treated with [14C]bendamustine at 120 mg/m'2, iv up to 168 hrs by 60-min LC-LSC-MSn method. The settings on record: in vivo.
Series [5] can be described thus: Total drug recovery in human at 120 mg/m'2, iv administered as single dose measured up to 3 weeks. The settings on record: in vivo, read-out: Drug recovery.
Series [6] is described as follows: Drug recovery in human urine at 120 mg/m'2, iv administered as single dose measured up to 3 weeks. The settings on record: read-out: Drug recovery.
Series [7] is described as follows: Drug excretion in human urine assessed as retention time at 120 mg/m'2, iv after 2 hrs by 180-min LC-LSC-MSn method.
Series [8] can be described thus: Drug excretion in human urine assessed as 4-(6-(bis(2-hydroxyethyl)amino)-1-methyl-1H-benzo[d]imidazol-2-yl)butanoic acid formation at 120 mg/m'2, iv up to 168 hrs by 60-min LC-LSC-MSn method. The settings on record: in vivo.
Series [9] in a line: Drug excretion in human urine assessed as 4-(6-(bis(2-hydroxyethyl)amino)-1-methyl-1H-benzo[d]imidazol-2-yl)-4-hydroxybutanoic acid formation at 120 mg/m'2, iv up to 168 hrs by 60-min LC-LSC-MSn method. The settings on record: in vivo.
Series [10] can be described thus: Drug excretion in human urine assessed as 4-(6-((2-(2-amino-2-carboxyethylthio)ethyl)(2-hydroxyethyl)amino)-1-methyl-1H-benzo[d]imidazol-2-yl)butanoic acid formation at 120 mg/m'2, iv up to 168 hrs by 60-min LC-LSC-MSn method. The conditions noted are these: in vivo.
Series [11] is described as follows: Drug excretion in human urine assessed as 4-(6-((2-(2-amino-2-carboxyethylthio)ethyl)(2-hydroxyethyl)amino)-1-methyl-1H-benzo[d]imidazol-2-yl)-4-hydroxybutanoic acid formation at 120 mg/m'2, iv up to 168 hrs by 60-min LC-LSC-MSn method. The conditions noted are these: in vivo.

Each structure is given as a SMILES string.

Take `Cn1c(CCCC(=O)O)nc2ccc(N(CCCl)CCOP(=O)(O)O)cc21`: the values for the Retention_time in [1] and in series [2] were 70.7 min and 26.1 min, respectively. The molecule also displayed a Drug excretion in series [3] of more than 1%.
Turning to `Cn1c(CCCC(=O)O)nc2ccc(N(CCO)CCS)cc21`, the Retention_time in series [1] was 64.4 min; in series [2], 24.2 min. Further, the Drug excretion in series [3] is reported as more than 1%.
Taken in the same sequence, the figures for `Cn1c(CCCC(=O)O)nc2ccc(NCCCl)cc21` were 72.5 min, 28.6 min and more than 1%.
As for `Cn1c(CCCC(=O)O)nc2ccc(NCC=O)cc21`, the Retention_time in series [1] was 29.4 min; in series [2], 16.9 min. In addition, the Drug excretion in series [3] is more than 1%.
`Cn1c(CCCC(=O)O)nc2ccc(N(CCO)CCO)cc21`: the Retention_time in series [1] turned out to be 33.7 min; in series [2], 17.6 min. The results for the Drug excretion in series [3] and in series [4] were more than 1% and “metabolite_detected”, respectively.
In the case of `CC(=O)NC(CSCCN(CCCl)c1ccc2nc(CCCC(=O)O)n(C)c2c1)C(=O)O` (centres undefined), the figures for the Retention_time in [1] and in series [2] were 97.6 min and 32.2 min, respectively. This molecule also had a Drug excretion in series [3] of more than 1%.
For `Cn1c(CCCC(=O)O)nc2ccc(N(CCS)CCCl)cc21` the same measures were 99.4 min, 35.1 min and more than 1%.
Taken in the same sequence, the figures for `Cn1c(C(O)CCC(=O)O)nc2ccc(N(CCCl)CCCl)cc21` (centres undefined) were 104.5 min, 35.1 min and more than 1%.
Taken in the same sequence, the figures for `Cn1c(C(O)CCC(=O)O)nc2ccc(N(CCO)CCCl)cc21` (centres undefined) were 71.3 min, 27.1 min and more than 1%.
For the molecule `O=C(O)CCC(O)c1nc2ccc(N(CCCl)CCCl)cc2[nH]1` (centres undefined), the Retention_time in [1] is recorded as 105.1 min; in series [2], 35.3 min. This molecule came in with a Drug excretion in series [3] of more than 1%.
In the case of `Cl.Cn1c(CCCC(=O)O)nc2ccc(N(CCCl)CCCl)cc21`, the dose excreted at 504 h was 76% in series [5] and 3% in series [6]. Further, the Retention_time in series [7] came out at 36.3 min. Besides, the Drug excretion entry in series [8], in [9], in series [10] and in [11] was “metabolite_detected” in each case.
On to `CN1CC(=O)N=C1NCCN(CCO)c1ccc2nc(CCCC(=O)O)n(C)c2c1`, for which the Retention_time in series [1] was determined as 24.2 min; in series [2], 13.9 min. The molecule further gave a Drug excretion in series [3] of more than 1%.
With `Cn1c(CCCC(=O)O)nc2ccc(N(CCO)CCSCC(N)C(=O)O)cc21` (centres undefined), the Retention_time in [1] is given as 29 min; in series [2], 15.8 min. The Drug excretion in series [3] was more than 1%; in series [4], “metabolite_detected”.
For `Cn1c(C(O)CCC(=O)O)nc2ccc(N(CCO)CCOP(=O)(O)O)cc21` (centres undefined), the Retention_time in series [1] is on record as 14.7 min; in series [2], 7.9 min. In series [3], this molecule yielded a Drug excretion of more than 1%.
For `CN1CC(=O)N=C1NCCN(CCCl)c1ccc2nc(CCCC(=O)O)n(C)c2c1` the same measures were 54.6 min, 23.1 min and more than 1%.
Taken in the same sequence, the figures for `Cn1c(C(O)CCC(=O)O)nc2ccc(NCCCl)cc21` (centres undefined) were 57.3 min, 25.4 min and more than 1%.
For `Cn1c(CCCC(=O)O)nc2ccc(N(CCO)CCOP(=O)(O)O)cc21` the same measures were 22 min, 12.1 min and more than 1%.
As for `Cn1c(C(O)CCC(=O)O)nc2ccc(N(CCO)CCO)cc21` (centres undefined), the Retention_time in series [1] worked out at 23.8 min; in series [2], 13.3 min. Besides, the results for the Drug excretion in series [3] and in [4] were more than 1% and “metabolite_detected”, respectively.
With `Cn1c(CCCC(=O)O)nc2ccc(N(CCCl)CCSCC(N)C(=O)O)cc21` (centres undefined), the Retention_time came to 73.7 min in [1] and 26.5 min in series [2]. Also, the Drug excretion in series [3] is listed as more than 1%.
Taken in the same sequence, the figures for `Cn1c(CCCC(=O)O)nc2ccc(N(CCO)CCCl)cc21` were 82.7 min, 29.2 min and more than 1%.
For `O=C(O)CCCc1nc2ccc(N(CCO)CCO)cc2[nH]1` the same measures were 18.7 min, 10.9 min and more than 1%.
For `Cn1c(C(O)CCC(=O)O)nc2ccc(N(CCO)CCSCC(N)C(=O)O)cc21` (centres undefined), the figures for the Retention_time in series [1] and in series [2] were 19.7 min and 11 min, respectively. For the same molecule, the Drug excretion in series [3] is more than 1%; in series [4], “metabolite_detected”.

Source of the values: ChEMBL document CHEMBL3526006, “Metabolite profiling of bendamustine in urine of cancer patients after administration of [14C]bendamustine” (Drug Metab Dispos, 2012).
